# Measurements reported in patent US20230381774A1, “MICROFLUDIC LAB-ON-CHIP DEVICE, MATRIX, SMALL MOLECULES AND THREE-DIMENSIONAL SPHEROIDS FOR CELL REPROGRAMMING” (The Regents of the University of California, priority 2022, published 2023).
# Entries after “also recorded” stand apart in the source; their conditions may differ.
# Key:
# Type in all cases: cell-based, mouse
# histone marks = assay: Immunofluorescence of histone marks in non-transduced fibroblasts; conditions: global; 10 μM blebbistatin or 5 μM PF573228, 2 hours, vs control
# Experimental: (§1) For immunostaining, cells were fixed with 4% paraformaldehyde (Electron Microscopy Sciences), permeabilized with 0.5% Triton-X-100 (Sigma), and blocked with 5% donkey serum (Jackson Immunoresearch) in phosphate buffered saline (PBS). For actin-cytoskeleton staining, samples were incubated with fluorescein isothiocyanate-conjugated phalloidin (Invitrogen) for 1 hour. Primary antibodies were incubated for 1 hour at room temperature or overnight at 4° C., followed by 1-hour incubation with Alexa 488 and/or Alexa 546-labeled secondary antibodies (Molecular Probes). Nuclei were stained with 4,6-diamino-2-phenylindole (DAPI) (Invitrogen).
# Quantification of histone intensity per nuclei was performed using an ImageJ macro. DAPI-stained nuclei were segmented using gaussian blur, thresholding, watershed, and analyze particle functions to identify individual nuclei. This mask was applied to the corresponding stained fluorescence channel to quantify the average fluorescence intensity within each nucleus.
# 5-methylcytosine (5-mC) = assay: Global DNA methylation (5-mC) assay; conditions: non-transduced fibroblasts, 24 hours, vs control
# Experimental: DNA was isolated from non-transduced fibroblasts treated with vehicle control (DMSO), 10 μM blebbistatin and 5 μM PF573228, respectively, for 24 hours using the PureLink Genomic DNA mini kit (Invitrogen) according to the manufacturer's instructions. To detect global DNA methylation (5-mC) levels in the samples, we utilized the MethylFlash Global DNA Methylation (5-mC) ELISA Easy kit (Epigentek) according to the manufacturer's protocol. 100 ng of DNA sample was utilized per reaction and after adding the color developer solution, the absorbance was measured using a plate reader (Infinite […], 30050303) at 450 nm.
# calponin and αSMA = assay: Mesenchymal marker expression (immunostaining, qRT-PCR, Western blot)
# Experimental: as §1
# RNA was isolated from samples using Trizol® (Ambion) according to the manufacturer's instructions. For cDNA synthesis, 500 ng of RNA was reverse transcribed using Maxima First Strand cDNA Synthesis Kit (ThermoFisher Scientific). Template DNA was amplified using Maxima SYBR Green/Fluorescein qPCR Master Mix (ThermoFisher Scientific) on a CFX qPCR machine (Bio-Rad). qRT-PCR data were analyzed using CFX Manager 3.1 (Bio-Rad) and gene expression levels were normalized to 18S.
# Fibroblasts were lysed and collected in Laemmli buffer ([…] Tris-HCl, 10% glycerol, 2% SDS, 5% 2-mercaptoethanol, 0.002% bromophenol blue) containing RIPA buffer (50 mM Tris-HCl, 150 mM NaCl, 1% Triton-X-100, 0.1% SDS, 10 mM NaF, 0.5% sodium deoxycholate) along with protease inhibitors (PMSF, Na3VO4 and Leupeptin) on ice. Protein lysates were centrifuged to pellet cell debris, and the supernatant was collected and used in further analysis. Protein samples were run using SDS-PAGE and transferred to polyvinylidene fluoride (PVDF) membranes. Membranes were blocked in 3% nonfat milk and incubated with primary antibodies overnight. Primary antibodies include pFAK, FAK, αSMA, Calponin, pERK, ERK, and GAPDH. Membranes were washed with Tris-Buffered Saline+0.05% Tween-20 and incubated with HRP-conjugated IgG secondary antibodies (Santa Cruz Biotechnologies) for one hour. Protein bands were visualized using Western Lightning™ Plus—Enhanced Chemiluminscence Substrate (Perkin Elmer Life & Analytical Sciences) and imaged on a ChemiDoc XRS system (Bio-Rad).
# iN cells [1] = assay: Patch-clamp electrophysiology of iN cells; conditions: for functionality of derived iN cells: electrophysiological analysis
# Experimental: For functional assessment of the iN cells, patch-clamp electrophysiology analysis was performed. All experiments were conducted at room temperature (22° C.-24° C.). All reagents were purchased from Sigma-Aldrich unless otherwise specified. Whole-cell recording was made from neurons using a patch clamp amplifier (MultiClamp 700B, Axon Instr.) under infrared differential interference contrast optics. Microelectrodes were made from borosilicate glass capillaries, with a resistance of 4-5 MW. For recording action potentials, cells were held at −70 mV in a […]. The intracellular solution for whole-cell recording of EPSPs and action potentials contained (in mM) 140 potassium gluconate, 5 KCl, 10 HEPES, 0.2 EGTA, 2 MgCl2, 4 MgATP, 0.3 Na2GTP and 10 Na2-phosphocreatine, pH 7.2 (adjusted with KOH).
# For recording spontaneous EPSCs (sEPSCs), cells were pre-treated with the extracellular bath solution containing 50 μM picrotoxin (Tocris) to exclude an inhibitory synaptic activity and held at −70 mV in a voltage-clamp mode with the intracellular solution containing (in mM) 130 CsMeSO4, 7 CsCl, 10 HEPES, 1 EGTA, 4 MgATP, 0.3 Na2GTP, and 10 Na2-phosphocreatine, pH 7.3 (adjusted with CsOH). After recording basal sEPSC responses for 5 min, 10 μM CNQX (Tocris) and 100 μM D,L-APV (Tocris) were co-treated to test whether sEPSCs were mediated by activation of both AMPA- and NMDA-type of glutamate receptors. For measuring spontaneous IPSC (sIPSCs), cells were pre-treated with the bath solution containing 10 μM CNQX and 100 μM D,L-APV and held at −70 mV with the intracellular solution containing (in mM) 137 CsCl, 10 HEPES, 1 EGTA, 4 MgATP, 0.3 Na2GTP, and 10 Na2-phosphocreatine, pH 7.3 (adjusted with CsOH). 50 μM picrotoxin was then treated to test a dependency of sIPSCs on GABA receptors after acquiring basal sIPSC responses for 5 min. Series resistance (10-25 MΩ) and input resistance (˜200 MΩ using potassium-based internal solution; 1-2 G2 using Cs-based internal solution) were monitored throughout the whole-cell recording or compared before and after sEPSC/IPSC recordings.
# Off-line analyses of action potential properties (number, amplitude, half-width) and the amplitude and frequency of sEPSC and sIPSC were performed by using a threshold event detection function of the Clampfit software (Molecular Devices). Visualization of analysis results and their statistical tests were performed by using GraphPad Prism® 6.0 software.
# iN cells [2] = assay: Immunostaining of mature neuronal markers in iN cells; conditions: iN cells derived in presence of inhibitor
# Experimental: as §1
# [3] = absence vs presence of blebbistatin
Structure (SMILES),"euchromatin marks (AcH3, H3K4me3, H3K4me1) (histone marks)","heterochromatin marks (H3K27me3, H3K9me3) (histone marks)",DNA methylation (5-mC) (5-methylcytosine (5-mC)),calponin and αSMA expression in BAM-transduced fibroblasts (calponin and αSMA; treated for 2 days),functionality of derived iN cells (iN cells [1]),mature neuronal marker expression of derived iN cells (iN cells [2]),calponin- and αSMA-positive cells (calponin and αSMA; non-transduced fibroblasts),"calponin and αSMA expression, gene and protein level (calponin and αSMA; non-transduced fibroblasts, day 3)","Eln and DCN expression (calponin and αSMA; qRT-PCR, non- and BAM-transduced fibroblasts)",frequency of spontaneous EPSCs (iN cells [1]; [3]),frequency of spontaneous IPSCs (iN cells [1]; [3]),IPSC amplitude (iN cells [1]; blebbistatin-derived iN cells),EPSC amplitude (iN cells [1]; iN cells derived with blebbistatin),action potential properties (iN cells [1]; iN cells generated in absence vs presence of blebbistatin)
CS(=O)(=O)c1cccc(CNc2nc(Nc3ccc4c(c3)CCC(=O)N4)ncc2C(F)(F)F)c1 [PF573228],"global increases in AcH3, H3K3me3 and H3K4me1 marks",a concurrent decrease in H3K9me3 and H3K27me3,lower levels of DNA methylation,decreased,exhibited functional neuronal properties as assessed by electrophysiological analysis,"expressed neuronal markers, including NeuN, MAP2, and synapsin; also recorded: displaying a typical neuronal morphology and co-expressing mature neuronal markers, NeuN, MAP2 and synapsin",–,–,–,–,–,–,–,–
Cc1ccc2c(c1)C(=O)C1(O)CCN(c3ccccc3)C1=N2 (stereo not shown) [blebbistatin],"an increase in AcH3, H3K4me3, and H3K4me1 marks",decreased,"a decrease in the abundance of DNA methylation marker, 5-methylcytosine (5-mC)",–,"functional, exhibiting spontaneous changes in membrane potential in response to current injection","expressed NeuN, microtubule-associated protein 2 (MAP2), and synapsin",less calponin and α-smooth muscle actin (SMA)-positive cells,decreased at the gene and protein level by day 3,"downregulated the expression of other mesenchymal and fibroblast-associated genes, Eln and DCN",no significant difference,no significant difference,significantly lower,significantly higher,no apparent difference
